Patent US12016922B2, “Stabilized aqueous antibody compositions” (Arecor Limited, priority 2012, dated 2024)
Blank lines part the entries; values can stand above or below the compound they belong to.

How the values were obtained:
Assay type in all cases: physicochemical
[1] = test system: rituximab; experiment: Aggregation of rituximab formulations on storage, % HMWS by size exclusion chromatography; conditions: for effect on the rate of aggregation: Example 5: rituximab 140 mg/ml
Protocol: (§1) Formulations of protein therapeutics, rituximab and certolizumab pegol, were prepared either in the absence or in the presence of various oligomers of ethyleneimine. The following products were used as the starting material: MabThera® (rituximab) and Cimzia® (certolizumab pegol). The compositions of the two products are as follows:
(§2) In order to prepare the formulations for testing, it was necessary to remove the original excipients and replace them with the selected excipients. The following procedure was used to prepare the formulations for testing: Original compositions were removed from the manufacturer's container and dialysed in 3.5 kDa cut-off dialysis cassettes (Thermo Pierce) at 2-8° C., using three changes for a minimum of 4 hours in each, including one overnight incubation.
(§3) The background solutions, containing the new excipients and adjusted to the required pH, were added to the dialysed proteins to achieve the required concentration of excipients and the protein in the final composition. The formulated samples were placed into storage at 40° C. or at 5° C., and stability was tested after a given period of time. The stability of the proteins was tested in compositions containing oligomers of ethyleneimine and compared to a ‘Control formulation’ with identical background in the absence of the oligomers.
(§4) The amount of high molecular weight species is measured using a 300×7.8 mm S3000 (or equivalent) size-exclusion column with a guard column. The mobile phase is potassium phosphate pH 6.5, with a flow rate of 0.4 ml/min, injection volume of 1 μl and detected at 210 and 280 nm. The results are expressed as % high molecular species (HMWS), i.e. sum of all peak areas corresponding to aggregated protein over the sum of all protein-related peaks on the chromatogram. […] However, within a given time-point the samples are tested using the column in the same condition, so the values generated within the time-point represent a very good indication of the relative stability of the protein in the compositions tested.
(§5) Rituximab was formulated at 100 mg/ml in the following background solution: EDTA (0.2 mM), methionine (1 mM), histidine (10 mM). The pH was adjusted to 6.5.
Rituximab was formulated at 100 mg/ml in the following background solution: EDTA (0.2 mM), methionine (1 mM), histidine (10 mM), in the presence of arginine (80 mM) as a tonicity modifier. The pH of all formulations was adjusted to 6.5. For comparison, the formulation of commercial liquid rituximab product (‘Original formulation’ also with rituximab at 100 mg/ml) was also included.
Rituximab was formulated at 100 mg/ml in the following background solution: EDTA (0.2 mM), methionine (1 mM) histidine (10 mM) and trehalose (200 mM). The pH was adjusted to 6.5.
Rituximab was formulated at 140 mg/ml in the following background solution: EDTA (0.2 mM), methionine (1 mM), histidine (10 mM) and trehalose (200 mM). The pH was adjusted to 6.5.

[2] = test system: Certolizumab pegol; experiment: Aggregation of certolizumab pegol formulations on storage, % HMWS by size exclusion chromatography; conditions: Certolizumab pegol 100 mg/ml, 40° C.
Protocol: as §1, §2, §3, §4
Certolizumab pegol was formulated at 100 mg/ml in histidine buffer (10 mM, pH 6.0) in the presence of either NaCl (150 mM) or 1,2-propandiol (200 mM) as tonicity modifiers.

[3] = test system: rituximab; experiment: Visual assessment of rituximab formulations on storage; conditions: rituximab 100 mg/ml, trehalose 200 mM
Protocol: as §2, §3
Vials are placed in a suitable location with a suitably selected contrasting background, and under sufficient and appropriate illumination to highlight any potential or detected visual deviations. A control (or freshly prepared material) is placed alongside for direct comparison. Solutions are classed as clear if there are no visual imperfections; as cloudy if there is a significant change in the opacity of the material; and if there are insoluble fractions, or if particles are visible towards the bottom of the vial, a precipitate is deemed to have been formed.
as §5

[4] = Example 4: rituximab 100 mg/ml, trehalose 200 mM, pH 6.5, 40° C., compared with background formulation without oligomer
[5] = rituximab 100 mg/ml, trehalose 200 mM, pH 6.5, 40° C., additive 0.2 mg/ml
[6] = rituximab 100 mg/ml, trehalose 200 mM, pH 6.5, 40° C., additive 1 mg/ml
[7] = rituximab 100 mg/ml, trehalose 200 mM, pH 6.5, 40° C., additive 5 mg/ml
[8] = Example 4: rituximab 100 mg/ml, trehalose 200 mM, pH 6.5, 40° C.
[9] = trehalose 200 mM, pH 6.5, 40° C.
[10] = rituximab 140 mg/ml, trehalose 200 mM, pH 6.5, 40° C., additive 0.03 mg/ml
[11] = rituximab 140 mg/ml, trehalose 200 mM, pH 6.5, 40° C., additive 1 mg/ml
[12] = rituximab 140 mg/ml, trehalose 200 mM, pH 6.5, 40° C., additive 5 mg/ml
[13] = rituximab 140 mg/ml, trehalose 200 mM, pH 6.5, 40° C., additive […]
[14] = histidine 10 mM pH 6.0, 1,2-propanediol 200 mM, additive 3 mg/ml
[15] = histidine 10 mM pH 6.0, NaCl 150 mM, additive 3 mg/ml
[16] = rituximab 140 mg/ml, trehalose 200 mM, pH 6.5, 40° C., additive 0.2 mg/ml
[17] = histidine 10 mM pH 6.0, 1,2-propanediol 200 mM, additive 35.9 mg/ml
[18] = histidine 10 mM pH 6.0, NaCl 150 mM, additive 35.9 mg/ml
[19] = rituximab 100 mg/ml, arginine 80 mM, pH 6.5, 40° C., additive 0.1 mg/ml
[20] = rituximab 100 mg/ml, arginine 80 mM, pH 6.5, 40° C., additive 0.5 mg/ml
[21] = rituximab 100 mg/ml, arginine 80 mM, pH 6.5, 40° C., additive 2.5 mg/ml
[22] = rituximab 100 mg/ml, trehalose 200 mM, pH 6.5, 5° C., additive 0.1 mg/ml
[23] = rituximab 100 mg/ml, trehalose 200 mM, pH 6.5, 5° C., additive 0.5 mg/ml
[24] = rituximab 100 mg/ml, trehalose 200 mM, pH 6.5, 5° C., additive 2.5 mg/ml
[25] = rituximab 100 mg/ml, trehalose 200 mM, pH 6.5, 40° C., additive 0.1 mg/ml
[26] = rituximab 100 mg/ml, trehalose 200 mM, pH 6.5, 40° C., additive 0.5 mg/ml
[27] = rituximab 100 mg/ml, trehalose 200 mM, pH 6.5, 40° C., additive 2.5 mg/ml
[28] = rituximab 140 mg/ml, trehalose 200 mM, pH 6.5, 40° C., additive 0.02 mg/ml
[29] = rituximab 140 mg/ml, trehalose 200 mM, pH 6.5, 40° C., additive 0.1 mg/ml

Compound: 2K mPEG valerate PEI800 [Compound (4), reference compound]
effect on the rate of formation of HMWS [1, 4]: reduced the rate of formation of HMWS in a dose dependent manner | % HMWS 16 weeks [1, 5]: 2.57% | % HWMS 0 weeks [1, 5]: 0.69% | % HMWS 16 weeks [1, 6]: 1.06% | % HWMS 0 weeks [1, 6]: 0.79% | % HMWS 16 weeks [1, 7]: 0.93% | % HWMS 0 weeks [1, 7]: 0.69%

% HMWS 16 weeks [1, 5]: 2.44% | % HWMS 0 weeks [1, 5]: 0.49% | % HMWS 16 weeks [1, 6]: 2.27% | % HWMS 0 weeks [1, 6]: 0.72% | % HMWS 16 weeks [1, 7]: 2.08% | % HWMS 0 weeks [1, 7]: 0.78%
Compound: NCCN [Ethylenediamine, reference compound]
effect on the rate of formation of HMWS [1, 4]: less effective in reducing the formation of HMWS

rate of aggregation compared with Original formulation [1, 8]: lower | % HMWS 16 weeks [1, 5]: 0.81% | % HWMS 0 weeks [1, 5]: 0.74% | % HMWS 16 weeks [1, 6]: 0.56% | % HWMS 0 weeks [1, 6]: 0.84% | % HMWS 16 weeks [1, 7]: 0.51% | % HWMS 0 weeks [1, 7]: 0.74% | % HMWS 0 weeks [1, 10]: 0.36% | % HMWS 12 weeks [1, 10]: 0.29% | % HMWS 26 weeks [1, 10]: 4.18% | % HMWS 0 weeks [1, 11]: 0.36% | % HMWS 12 weeks [1, 11]: 0.27% | % HMWS 26 weeks [1, 11]: 0.45% | % HMWS 0 weeks [1, 12]: 0.26% | % HMWS 12 weeks [1, 12]: 0.17% | % HMWS 26 weeks [1, 12]: 0.64% | % HMWS 0 weeks [1, 13]: 0.35% | % HMWS 12 weeks [1, 13]: 0.32% | % HMWS 26 weeks [1, 13]: 3.26% | % HMWS 0 weeks ([2]; histidine 10 mM pH 6.0, 1,2-propanediol 200 mM, additive 1 mg/ml): 0.55% | % HMWS 0 weeks [2, 14]: 0.49% | % HMWS 8 weeks [2, 14]: 0.85% | % HMWS 0 weeks ([2]; histidine 10 mM pH 6.0, NaCl 150 mM, additive 1 mg/ml): 0.63% | % HMWS 0 weeks [2, 15]: 0.49%
Compound: NCCNCCNCCN [Triethylenetetramine]
effect on the rate of formation of HMWS [1, 4]: considerably reduce the rate of formation of HMWS in a dose dependent manner | effect on the rate of aggregation [1, 9]: considerable, dose-dependent reduction in the aggregation rate

Compound: 5K mPEG Propyl Triethylenetetramine Ethanol [Compound (2)]
effect on the rate of aggregation [1, 9]: reduction in the rate of aggregation | % HMWS 0 weeks [1, 16]: 0.25% | % HMWS 12 weeks [1, 16]: 1.31% | % HMWS 26 weeks [1, 16]: 4.79% | % HMWS 0 weeks [1, 11]: 0.40% | % HMWS 12 weeks [1, 11]: 1.17% | % HMWS 26 weeks [1, 11]: 4.44% | % HMWS 0 weeks [1, 12]: 0.35% | % HMWS 12 weeks [1, 12]: 0.97% | % HMWS 26 weeks [1, 12]: 3.60% | % HMWS 0 weeks [2, 14]: 0.64% | % HMWS 8 weeks [2, 14]: 2.02% | % HMWS 0 weeks [2, 17]: 0.81% | % HMWS 8 weeks [2, 17]: 2.47% | % HMWS 0 weeks [2, 15]: 0.66% | % HMWS 8 weeks [2, 15]: 3.32% | % HMWS 0 weeks [2, 18]: 0.79% | % HMWS 8 weeks [2, 18]: 2.39%

% HMWS 0 weeks [1, 19]: 1.58% | % HMWS 12 weeks [1, 19]: 2.08% | % HMWS 0 weeks [1, 20]: 1.53% | % HMWS 12 weeks [1, 20]: 1.89% | % HMWS 0 weeks [1, 21]: 1.47% | % HMWS 12 weeks [1, 21]: 0.85% | % HMWS 8 weeks [1, 22]: 1.23% | % HMWS T0 [1, 22]: 1.40% | % HMWS 8 weeks [1, 23]: 1.22% | % HMWS T0 [1, 23]: 1.44% | % HMWS 8 weeks [1, 24]: 1.21% | % HMWS T0 [1, 24]: 1.40% | % HMWS 8 weeks [1, 25]: 1.79% | % HMWS T0 [1, 25]: 1.40% | % HMWS 8 weeks [1, 26]: 1.85% | % HMWS T0 [1, 26]: 1.44% | % HMWS 8 weeks [1, 27]: 1.45% | % HMWS T0 [1, 27]: 1.40% | Visual (8 weeks) ([3]; pH 6.5, 5° C., additive 0.1 mg/ml): Clear | Visual (8 weeks) ([3]; pH 6.5, 5° C., additive 0.5 mg/ml): Clear | Visual (8 weeks) ([3]; pH 6.5, 5° C., additive 2.5 mg/ml): Clear | Visual (8 weeks) ([3]; pH 6.5, 40° C., additive 0.1 mg/ml): Clear | Visual (8 weeks) ([3]; pH 6.5, 40° C., additive 0.5 mg/ml): Clear | Visual (8 weeks) ([3]; pH 6.5, 40° C., additive 2.5 mg/ml): Clear
Compound: Cl.Cl.Cl.Cl.Cl.NCCNCCNCCNCCN [Tetraethylenepentamine, tetraethylenepentamine pentahydrochloride]
effect on the rate of formation of HMWS ([1]; Example 1: rituximab 100 mg/ml, trehalose, pH 6.5, 40° C. and 5° C.): reduce considerably the rate of formation of HMWS | effect on the rate of formation of HMWS ([1]; Example 3: rituximab 100 mg/ml, arginine 80 mM, pH 6.5, 40° C., compared with background solutions without oligomer): reduce considerably the rate of formation of HMWS

rate of aggregation compared with Original formulation [1, 8]: lower | % HMWS 16 weeks [1, 5]: 0.94% | % HWMS 0 weeks [1, 5]: 0.81% | % HMWS 16 weeks [1, 6]: 0.70% | % HWMS 0 weeks [1, 6]: 0.70% | % HMWS 16 weeks [1, 7]: 0.67% | % HWMS 0 weeks [1, 7]: 0.79% | % HMWS 0 weeks [1, 28]: 0.37% | % HMWS 12 weeks [1, 28]: 0.91% | % HMWS 26 weeks [1, 28]: 4.09% | % HMWS 0 weeks [1, 29]: 0.38% | % HMWS 12 weeks [1, 29]: 0.35% | % HMWS 26 weeks [1, 29]: 0.89% | % HMWS 0 weeks [1, 11]: 0.38% | % HMWS 12 weeks [1, 11]: 0.24% | % HMWS 0 weeks [1, 12]: 0.37% | % HMWS 12 weeks [1, 12]: 0.29% | % HMWS 26 weeks [1, 12]: 1.83%
Compound: NCCNCCN [Diethylenetriamine]
effect on the rate of formation of HMWS [1, 4]: considerably reduce the rate of formation of HMWS in a dose dependent manner | effect on the rate of aggregation [1, 9]: considerable, dose-dependent reduction in the aggregation rate
